US9161935B2 (TEVA PHARMACEUTICAL INDUSTRIES, LTD., priority 2012, dated 2015)

Test system: Sub-Populations of Crohn's Disease Patients
Test: CD-LAQ-201 sub-populations of Crohn's disease patients (Example 2)
Type: in vivo, human
Experimental: This study was conducted according and with similar requirements as presented in Example 1. […] Patients, who have received anti-TNFαs in the past, tend to reflect a more severe, refractory segment of the Crohn's disease population. […] This sub-cohort analysis describes remission rates at week 8 for patients who were classified as having a predominantly inflammatory disease (based on the Montreal classifications) versus those that have a fibrostenotic or penetrating disease.

[1] = Laq 1.0 mg, Previous use of anti-TNFαs YES, week 8
[2] = Laq 1.5 mg, Fibrostenotic, week 8
[3] = Laq 1.5 mg, Inflammatory, week 8
[4] = Laq 1.5 mg, Oral steroids on Baseline NO
[5] = Laq 1.5 mg, Oral steroids on Baseline NO, week 8
[6] = Laq 1.5 mg, Oral steroids on Baseline YES
[7] = Laq 1.5 mg, Oral steroids on Baseline YES, week 8
[8] = Laq 1.5 mg, Previous Operations NO
[9] = Laq 1.5 mg, Previous Operations NO, week 8
[10] = Laq 1.5 mg, Previous Operations YES
[11] = Laq 1.5 mg, Previous Operations YES, week 8
[12] = Laq 1.5 mg, Previous use of anti-TNFαs NO
[13] = Laq 1.5 mg, Previous use of anti-TNFαs NO, week 8
[14] = Laq 1.5 mg, Previous use of anti-TNFαs YES
[15] = Laq 1.5 mg, Previous use of anti-TNFαs YES, week 8
[16] = Laq 2.0 mg, Fibrostenotic, week 8
[17] = Laq 2.0 mg, Inflammatory, week 8
[18] = Laq 2.0 mg, Oral steroids on Baseline NO
[19] = Laq 2.0 mg, Oral steroids on Baseline NO, week 8
[20] = Laq 2.0 mg, Oral steroids on Baseline YES
[21] = Laq 2.0 mg, Oral steroids on Baseline YES, week 8
[22] = Laq 2.0 mg, Previous Operations NO
[23] = Laq 2.0 mg, Previous Operations NO, week 8
[24] = Laq 2.0 mg, Previous Operations YES
[25] = Laq 2.0 mg, Previous Operations YES, week 8
[26] = Laq 2.0 mg, Previous use of anti-TNFαs NO
[27] = Laq 2.0 mg, Previous use of anti-TNFαs NO, week 8
[28] = Laq 2.0 mg, Previous use of anti-TNFαs YES
[29] = Laq 2.0 mg, Previous use of anti-TNFαs YES, week 8

SMILES: CCN(C(=O)c1c(O)c2c(Cl)cccc2n(C)c1=O)c1ccccc1 [laquinimod]
- Responders100 - N (%): N (Laq 1.0 mg, Previous use of anti-TNFαs YES): 5
- Remission - N (%): % [1]: 16.7%
- Remission - N (%): N [1]: 3
- CDAI Change from Baseline - Mean ± SD (Laq 1.5 mg, Fibrostenotic): −51.8
- Responders70 - N (%): % (Laq 1.5 mg, Fibrostenotic): 27.8%
- Responders70 - N (%): N (Laq 1.5 mg, Fibrostenotic): 5
- Responders100 - N (%): % (Laq 1.5 mg, Fibrostenotic): 27.8%
- Responders100 - N (%): N (Laq 1.5 mg, Fibrostenotic): 5
- Remission - N (%): % [2]: 11.1%
- Remission - N (%): N [2]: 2
- CDAI Change from Baseline - Mean ± SD (Laq 1.5 mg, Inflammatory): −43.8
- Responders70 - N (%): % (Laq 1.5 mg, Inflammatory): 36.4%
- Responders70 - N (%): N (Laq 1.5 mg, Inflammatory): 4
- Responders100 - N (%): % (Laq 1.5 mg, Inflammatory): 27.3%
- Responders100 - N (%): N (Laq 1.5 mg, Inflammatory): 3
- Remission - N (%): % [3]: 18.2%
- Remission - N (%): N [3]: 2
- CDAI Change from Baseline - Mean ± SD [4]: −46.8
- Responders70 - N (%): % [4]: 25.0%
- Responders70 - N (%): N [4]: 5
- Responders100 - N (%): % [4]: 20.0%
- Responders100 - N (%): N [4]: 4
- Remission - N (%): % [5]: 10.0%
- Remission - N (%): N [5]: 2
- CDAI Change from Baseline - Mean ± SD [6]: −52.6
- Responders70 - N (%): % [6]: 44.4%
- Responders70 - N (%): N [6]: 4
- Responders100 - N (%): % [6]: 44.4%
- Responders100 - N (%): N [6]: 4
- Remission - N (%): % [7]: 22.2%
- Remission - N (%): N [7]: 2
- CDAI Change from Baseline - Mean ± SD [8]: −68.3
- Responders70 - N (%): % [8]: 43.8%
- Responders70 - N (%): N [8]: 7
- Responders100 - N (%): % [8]: 37.5%
- Responders100 - N (%): N [8]: 6
- Remission - N (%): % [9]: 25.0%
- Remission - N (%): N [9]: 4
- CDAI Change from Baseline - Mean ± SD [10]: −26.0
- Responders70 - N (%): % [10]: 15.4%
- Responders70 - N (%): N [10]: 2
- Responders100 - N (%): % [10]: 15.4%
- Responders100 - N (%): N [10]: 2
- Remission - N (%): % [11]: 0.0%
- Remission - N (%): N [11]: 0
- CDAI Change from Baseline - Mean ± SD [12]: −95.5
- Responders70 - N (%): % [12]: 54.5%
- Responders70 - N (%): N [12]: 6
- Responders100 - N (%): % [12]: 45.5%
- Responders100 - N (%): N [12]: 5
- Remission - N (%): % [13]: 27.3%
- Remission - N (%): N [13]: 3
- CDAI Change from Baseline - Mean ± SD [14]: −18.4
- Responders70 - N (%): % [14]: 16.7%
- Responders70 - N (%): N [14]: 3
- Responders100 - N (%): % [14]: 16.7%
- Responders100 - N (%): N [14]: 3
- Remission - N (%): % [15]: 5.6%
- Remission - N (%): N [15]: 1
- CDAI Change from Baseline - Mean ± SD (Laq 2.0 mg, Fibrostenotic): −40.7
- Responders70 - N (%): % (Laq 2.0 mg, Fibrostenotic): 22.2%
- Responders70 - N (%): N (Laq 2.0 mg, Fibrostenotic): 4
- Responders100 - N (%): % (Laq 2.0 mg, Fibrostenotic): 22.2%
- Responders100 - N (%): N (Laq 2.0 mg, Fibrostenotic): 4
- Remission - N (%): % [16]: 16.7%
- Remission - N (%): N [16]: 3
- CDAI Change from Baseline - Mean ± SD (Laq 2.0 mg, Inflammatory): −33.1
- Responders70 - N (%): % (Laq 2.0 mg, Inflammatory): 36.4%
- Responders70 - N (%): N (Laq 2.0 mg, Inflammatory): 4
- Responders100 - N (%): % (Laq 2.0 mg, Inflammatory): 36.4%
- Responders100 - N (%): N (Laq 2.0 mg, Inflammatory): 4
- Remission - N (%): % [17]: 18.2%
- Remission - N (%): N [17]: 2
- CDAI Change from Baseline - Mean ± SD [18]: −39.7
- Responders70 - N (%): % [18]: 29.2%
- Responders70 - N (%): N [18]: 7
- Responders100 - N (%): % [18]: 29.2%
- Responders100 - N (%): N [18]: 7
- Remission - N (%): % [19]: 16.7%
- Remission - N (%): N [19]: 4
- CDAI Change from Baseline - Mean ± SD [20]: −20.3
- Responders70 - N (%): % [20]: 20.0%
- Responders70 - N (%): N [20]: 1
- Responders100 - N (%): % [20]: 20.0%
- Responders100 - N (%): N [20]: 1
- Remission - N (%): % [21]: 20.0%
- Remission - N (%): N [21]: 1
- CDAI Change from Baseline - Mean ± SD [22]: −54.6
- Responders70 - N (%): % [22]: 37.5%
- Responders70 - N (%): N [22]: 6
- Responders100 - N (%): % [22]: 37.5%
- Responders100 - N (%): N [22]: 6
- Remission - N (%): % [23]: 18.8%
- Remission - N (%): N [23]: 3
- CDAI Change from Baseline - Mean ± SD [24]: −14.2
- Responders70 - N (%): % [24]: 15.4%
- Responders70 - N (%): N [24]: 2
- Responders100 - N (%): % [24]: 15.4%
- Responders100 - N (%): N [24]: 2
- Remission - N (%): % [25]: 15.4%
- Remission - N (%): N [25]: 2
- CDAI Change from Baseline - Mean ± SD [26]: −56.4
- Responders70 - N (%): % [26]: 55.6%
- Responders70 - N (%): N [26]: 10
- Responders100 - N (%): % [26]: 33.3%
- Responders100 - N (%): N [26]: 6
- Remission - N (%): % [27]: 27.8%
- Remission - N (%): N [27]: 5
- CDAI Change from Baseline - Mean ± SD [28]: −102.2
- Responders70 - N (%): % [28]: 50.0%
- Responders70 - N (%): N [28]: 6
- Responders100 - N (%): % [28]: 50.0%
- Responders100 - N (%): N [28]: 6
- Remission - N (%): % [29]: 25.0%
- Remission - N (%): N [29]: 3
- effect of oral steroids together with laquinimod on remission at week 8 (laquinimod 0.5 mg): potential synergistic effect
- effect on remission at week 8 with or without previous operations (laquinimod 0.5 mg): had an effect over placebo in both sub-populations
- remission in predominantly inflammatory disease vs the complementary cohort (laquinimod 0.5 mg and 1 mg, week 8): may work better
